Experimental data reported in article PMC8443696, “Structural determinants and regulation of spontaneous activity in GABAA receptors” (Nature Communications, 2021).
Several values for one entry are separate records, joined by “and”; a condition that tells them apart may be missing. Equal values may be shown once. Read-outs that look alike come from different tables or passages of the source.

Columns and labels:
[1] = molecular target: T1, α4β3δ receptors (UniProt P18506+P63080+Q9D6F4); assay type: cell-based, mouse;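 for GABA current, Supp. Fig. 2b: GABA applied at 0.3 µM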
T1 construct: expressed in transfected cells; host or cells: HEK 293
Text: (§1) All components were obtained from Life Technologies.
(§2) Currents were acquired with Clampex ver.
(§3) Cells were voltage clamped at −40 mV.
(§4) All data were normalised to the fitted maximum response.

[2] = molecular target: α4β3^DNTKδ receptors (UniProt P18506+P63080+Q9D6F4, E204T/G196D/K198N/R205K)
Text: as §1, §2, §3, §4

[3] = molecular target: α4β3^K279Tγ2L receptors (Mus musculus, UniProt P22723+P63080+Q9D6F4, K304T)
Text: as §1, §2, §3, §4

[4] = molecular target: T2, α4β3γ2L receptors (Mus musculus, UniProt P22723+P63080+Q9D6F4); assay: GABA concentration-response curves, whole-cell patch clamp in HEK cells; assay type: cell-based
T2 construct: expressed in transfected cells; host or cells: HEK 293
Text: as §1, §2, §3, §4

[5] = molecular target: T1, α4β3δ receptors; assay type: cell-based, mouse; details: α4β3δ GABA (Fig. 1d); GABA 500 µM, PTX 100 µM; individual cells
Text: as §1, §2, §3
(§5) For assessment of the efficacy of allosteric modulators on spontaneous activity, compounds were briefly applied (3–5 s) to achieve steady-state currents (IMod). […] The IMod was summed with IPTX (or subtracted for inhibitory modulators) and the Ispont calculated, as described by Eq. (2):2 Ispont(%)=[(IPTX+IMod)/(IPTX+IMax)]×100……………………………………

[6] = tested on: T3, α1β3γ2L receptors; assay: Quantification of spontaneous activity (Ispont) in HEK cells, whole-cell patch clamp; assay type: cell-based, mouse; details: α1β3γ2L GABA (Fig. 1d); GABA 500 µM, PTX 100 µM; individual cells
T3 construct: expressed in transfected cells; host or cells: HEK 293
Text: as §1, §2, §3, §5

[7] = tested on: T4, α4β3 receptors; assay: Agonist-evoked whole-cell currents and their modulation by Zn2+ / DS2 in HEK cells;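 for GABA current, Supp. Fig. 2b: GABA applied at 0.3 µM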; assay type: cell-based, mouse; design: GABA current, Supp. Fig. 2b / GABA + DS2 current, Supp. Fig. 2b / GABA current, Supp. Fig. 2a: unit not given here
T4 construct: expressed in transfected cells; host or cells: HEK 293
Text: as §1, §2, §3

[8] = molecular target: T1, α4β3δ receptors; assay: as above; assay type: cell-based, mouse; details: GABA alone, individual cells
Text: as §1, §2, §3

[9] = molecular target: T2, α4β3γ2L receptors; assay: Agonist-evoked whole-cell currents and their modulation by Zn2+ in HEK cells; assay type: cell-based; details: GABA alone, individual cells
Text: as §1, §2, §3

NCCCC(=O)O [GABA, γ-aminobutyric acid]
GABA current normalised to the fitted maximum response ([1]; [GABA] 0.1, individual cells): 0.5073 and 0.405 and 0.6131
nH ([1]; individual cells): 0.63 and 0.57 and 0.45 and 0.59 and 0.53 and 0.44 and 0.46 and 0.51
Hill coefficient ([1]; mean ± SEM, n = 9): 0.5 ± 0.02
GABA current normalised to the fitted maximum response ([2]; α4β3DNTKδ, [GABA] 0.01, individual cells): 0.0007434 and 0.002452 and 0.03107 and 0.001383 and 0.00433 and 0.003861 and 0.002036 and 0.01162 and 0 and 0.01893
GABA current normalised to the fitted maximum response ([2]; α4β3DNTKδ, [GABA] 0.03, individual cells): 0.007062 and 0.01195 and 0.04826 and 0.01383 and 0.009382 and 0.004413 and 0.007126 and 0.02054 and 0.004552 and 0.04327
GABA current normalised to the fitted maximum response ([2]; α4β3DNTKδ, [GABA] 0.1, individual cells): 0.04328 and 0.0495 and 0.09628 and 0.06221 and 0.03922 and 0.04794 and 0.04133 and 0.1252 and 0.03443 and 0.105
GABA current normalised to the fitted maximum response ([2]; α4β3DNTKδ, [GABA] 0.3, individual cells): 0.1541 and 0.16 and 0.2541 and 0.193 and 0.1198 and 0.1414 and 0.1295 and 0.114 and 0.2315
GABA current normalised to the fitted maximum response ([2]; α4β3DNTKδ, [GABA] 1, individual cells): 0.3807 and 0.3987 and 0.5261 and 0.4351 and 0.4134 and 0.5199 and 0.3786 and 0.5032
GABA current normalised to the fitted maximum response ([2]; α4β3DNTKδ, [GABA] 3, individual cells): 0.6642 and 0.6962 and 0.7428 and 0.6422 and 0.5604 and 0.7146 and 0.5958 and 0.7349 and 0.6146 and 0.6907
GABA current normalised to the fitted maximum response ([2]; α4β3DNTKδ, [GABA] 10, individual cells): 0.8725 and 0.8838 and 0.9794 and 0.868 and 0.8251 and 0.879 and 0.7932 and 0.8504 and 0.9182 and 0.913
GABA current normalised to the fitted maximum response ([2]; α4β3DNTKδ, [GABA] 30, individual cells): 0.9699 and 0.9833 and 0.9744 and 0.9032 and 0.8901 and 0.9131 and 0.9034 and 0.7914 and 0.976 and 0.9404
GABA current normalised to the fitted maximum response ([2]; α4β3DNTKδ, [GABA] 100, individual cells): 0.9851 and 0.9946 and 0.9484 and 0.9857 and 0.9989 and 1.0526 and 1.007 and 0.9834 and 1.041 and 0.9979
GABA current normalised to the fitted maximum response ([2]; α4β3DNTKδ, [GABA] 300, individual cells): 0.994 and 0.9896 and 0.9955 and 1.01 and 0.9818 and 1.0044 and 0.9828 and 1.081 and 0.9165 and 0.972
nH ([2]; α4β3DNTKδ, individual cells): 0.91 and 0.96 and 1.1 and 0.94 and 0.75 and 1.12 and 1.06 and 1
Hill coefficient ([2]; α4β3^DNTKδ, mean ± SEM, n = 10): 1.0 ± 0.04
GABA current normalised to the fitted maximum response ([3]; α4β3K279Tγ2L, [GABA] 0.001, individual cells): 0.2519 and 0 (3×) and 0.1524 and 0.248
GABA current normalised to the fitted maximum response ([3]; α4β3K279Tγ2L, [GABA] 0.003, individual cells): 0.1404 and 0.2434 and 0.2001 and 0.06943 and 0 (2×)
GABA current normalised to the fitted maximum response ([3]; α4β3K279Tγ2L, [GABA] 0.01, individual cells): 0.2519 and 0.1217 and 0.166 and 0.124 and 0.0823 and 0.03949
GABA current normalised to the fitted maximum response ([3]; α4β3K279Tγ2L, [GABA] 0.03, individual cells): 0.2267 and 0.2011 and 0.2911 and 0.2232 and 0.2097 and 0.1075
GABA current normalised to the fitted maximum response ([3]; α4β3K279Tγ2L, [GABA] 0.1, individual cells): 0.3277 and 0.4723 and 0.5922 and 0.2125 and 0.4931 and 0.3266
GABA current normalised to the fitted maximum response ([3]; α4β3K279Tγ2L, [GABA] 0.3, individual cells): 0.407 and 0.5504 and 0.3093 and 1.165 and 0.3595
GABA current normalised to the fitted maximum response ([3]; α4β3K279Tγ2L, [GABA] 1, individual cells): 0.6167 and 0.8427 and 0.9144 and 0.4437 and 0.6991 and 0.6708
GABA current normalised to the fitted maximum response ([3]; α4β3K279Tγ2L, [GABA] 3, individual cells): 0.7288
nH ([3]; α4β3K279Tγ2L, individual cells): 0.3987 and 0.6455 and 0.6824 and 0.44 and 1.925 and 0.7169
Hill coefficient ([3]; α4β3^K279Tγ2L, mean ± SEM, n = 6): 0.8 ± 0.2
GABA current normalised to the fitted maximum response ([4]; [GABA] 0.01, individual cells): 0.001664 and 0.002276 and 0.001669 and 0.01171 and 0.01147
GABA current normalised to the fitted maximum response ([4]; [GABA] 0.03, individual cells): 0.005144 and 0.004138 and 0.00402 and 0.01346 and 0.01822
GABA current normalised to the fitted maximum response ([4]; [GABA] 0.1, individual cells): 0.01452 and 0.01076 and 0.01069 and 0.03174 and 0.04395
GABA current normalised to the fitted maximum response ([4]; [GABA] 0.3, individual cells): 0.02596 and 0.02427 and 0.06574 and 0.085
GABA current normalised to the fitted maximum response ([4]; [GABA] 1, individual cells): 0.09711 and 0.06608 and 0.07868 and 0.1536 and 0.188
GABA current normalised to the fitted maximum response ([4]; [GABA] 3, individual cells): 0.2349 and 0.1582 and 0.203 and 0.3143 and 0.3127
GABA current normalised to the fitted maximum response ([4]; [GABA] 10, individual cells): 0.4431 and 0.3362 and 0.4922 and 0.6263 and 0.5927
GABA current normalised to the fitted maximum response ([4]; [GABA] 30, individual cells): 0.548 and 0.6886 and 0.7844 and 0.7581
GABA current normalised to the fitted maximum response ([4]; [GABA] 100, individual cells): 0.7417 and 0.7257 and 0.7724 and 0.8852 and 0.8968
GABA current normalised to the fitted maximum response ([4]; [GABA] 300, individual cells): 0.8265 and 0.8069 and 0.8364 and 0.9453 and 0.9104
GABA current normalised to the fitted maximum response ([4]; [GABA] 1000, individual cells): 0.9797 and 0.9449 and 0.994 and 1.0249 and 1.018
GABA current normalised to the fitted maximum response ([4]; [GABA] 3000, individual cells): 0.9857 and 0.9907 and 1.044 and 0.9972 and 0.9754
nH ([4]; individual cells): 0.6867 and 0.7293 and 0.7792 and 0.8713 and 0.7855
Hill coefficient ([4]; mean ± SEM, n = 5): 0.8 ± 0.03
Ispont, IMax from GABA [5]: 6.076% and 14.3782% and 18.0154% and 11.8804% and 19.3061% and 35.4037% and 16.1707%
Ispont, IMax from GABA [6]: 0.9134% and 0.3206% and 5.267% and 3.501% and 0.7067% and 1.417%
Whole-cell current activated by GABA ([7]; 500 µM GABA, n = 7): 237 ± 95 pA
GABA current, Supp. Fig. 2a ([7]; GABA alone, individual cells): 0.31 and 0.16 and 0.22 and 0.23 and 0.064
GABA current, Supp. Fig. 2b ([7]; GABA alone, individual cells): 0.04 and 0.13 and 0.11 and 0.10 and 0.27
GABA current, Supp. Fig. 2a [8]: 0.41 and 0.73 and 1.32 and 2.78
GABA current, Supp. Fig. 2b [8]: 0.53 and 0.27 and 0.065 and 0.26 and 0.65
GABA current, Supp. Fig. 2a [9]: 1.69 and 2.20 and 3.55 and 12.70
